Test results published in publication PMC5762315, “Inhibition of polo-like kinase 4 (PLK4): a new therapeutic option for rhabdoid tumors and pediatric medulloblastoma” (Oncotarget, 2017).
Values joined by “and” are separate entries in the source; they are usually repeats but may differ in a detail not shown here. Identical values can stand only once.

Assays:
Experiment in all cases: LanthaScreen Eu Kinase Binding Assay, panel of 486 biochemical kinase assays
various kinases [1] = target: various kinases (Homo sapiens, UniProt O75460); settings: ERN1
various kinases [2] = target: various kinases (Homo sapiens, UniProt O75716); settings: kinase STK16 (PKL12); LanthaScreen Binding
various kinases [3] = target: various kinases (Homo sapiens, UniProt P10721, T670E); settings: KIT T670E
various kinases [4] = target: various kinases (Homo sapiens, UniProt P22694); settings: kinase PRKACB (PRKAC beta); LanthaScreen Binding
various kinases [5] = target: various kinases (Homo sapiens, UniProt P30291); settings: kinase WEE1; LanthaScreen Binding
various kinases [6] = target: various kinases (Homo sapiens, UniProt P30530, R499C); settings: AXL R499C
various kinases [7] = target: various kinases (Homo sapiens, UniProt P37023); settings: ACVRL1 (ALK1)
various kinases [8] = target: various kinases (Homo sapiens, UniProt P45984); settings: MAPK9 (JNK2)
various kinases [9] = target: various kinases (Homo sapiens, UniProt Q02779); settings: MAP3K10 (MLK2)
various kinases [10] = target: various kinases (Homo sapiens, UniProt Q08345); settings: DDR1
various kinases [11] = target: various kinases (Homo sapiens, UniProt Q13131)
various kinases [12] = target: various kinases (Homo sapiens, UniProt Q13555); settings: CAMK2G (CaMKII gamma)
various kinases [13] = target: various kinases (Homo sapiens, UniProt Q13873); settings: BMPR2
various kinases [14] = target: various kinases (Homo sapiens, UniProt Q15375); settings: EPHA7
various kinases [15] = target: various kinases (Homo sapiens, UniProt Q86Y07); settings: kinase VRK2; LanthaScreen Binding
various kinases [16] = target: various kinases (Homo sapiens, UniProt Q8IVH8); settings: MAP4K3 (GLK)
various kinases [17] = target: various kinases (Homo sapiens, UniProt Q8IWQ3); settings: BRSK2
various kinases [18] = target: various kinases (Homo sapiens, UniProt Q92630); settings: DYRK2
various kinases [19] = target: T1, various kinases (Homo sapiens, UniProt Q9H2K8); settings: kinase TAOK3 (JIK); LanthaScreen Binding
T1 sequence (Q9H2K8 1-898): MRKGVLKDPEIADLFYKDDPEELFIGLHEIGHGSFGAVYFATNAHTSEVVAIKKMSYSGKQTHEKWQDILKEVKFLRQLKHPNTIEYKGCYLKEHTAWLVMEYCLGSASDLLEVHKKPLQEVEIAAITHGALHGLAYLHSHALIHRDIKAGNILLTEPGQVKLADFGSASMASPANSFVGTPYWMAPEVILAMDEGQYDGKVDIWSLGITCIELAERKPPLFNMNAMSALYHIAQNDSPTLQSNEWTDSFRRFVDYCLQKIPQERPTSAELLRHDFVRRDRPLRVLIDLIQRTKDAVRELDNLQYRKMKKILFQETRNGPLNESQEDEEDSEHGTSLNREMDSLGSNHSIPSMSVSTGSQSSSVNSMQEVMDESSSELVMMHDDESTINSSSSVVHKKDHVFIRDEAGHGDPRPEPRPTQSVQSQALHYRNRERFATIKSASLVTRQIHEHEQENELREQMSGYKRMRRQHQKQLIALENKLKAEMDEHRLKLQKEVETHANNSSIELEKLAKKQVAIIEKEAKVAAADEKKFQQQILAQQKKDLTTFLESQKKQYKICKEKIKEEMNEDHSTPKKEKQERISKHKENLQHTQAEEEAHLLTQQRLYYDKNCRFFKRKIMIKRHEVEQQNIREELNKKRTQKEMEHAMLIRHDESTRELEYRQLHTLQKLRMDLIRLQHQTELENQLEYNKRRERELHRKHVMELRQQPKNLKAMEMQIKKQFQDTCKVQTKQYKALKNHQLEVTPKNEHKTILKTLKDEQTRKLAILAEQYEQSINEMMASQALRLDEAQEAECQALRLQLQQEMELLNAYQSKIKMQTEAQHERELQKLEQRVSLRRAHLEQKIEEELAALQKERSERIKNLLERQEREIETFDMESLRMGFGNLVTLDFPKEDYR

various kinases [20] = target: various kinases (Homo sapiens, UniProt Q9NY57); settings: kinase STK32B (YANK2); LanthaScreen Binding
various kinases [21] = target: various kinases (Homo sapiens, UniProt Q9NYL2); settings: kinase ZAK; LanthaScreen Binding
various kinases [22] = target: various kinases (Homo sapiens, UniProt Q9UEW8); settings: kinase STK39 (STLK3); LanthaScreen Binding
various kinases [23] = target: various kinases (Homo sapiens, UniProt Q9UKE5); settings: kinase TNIK; LanthaScreen Binding
various kinases [24] = target: various kinases (Homo sapiens, UniProt Q9Y2U5); settings: MAP3K2 (MEKK2)
various kinases [25] = target: various kinases (Homo sapiens, UniProt Q9Y572); settings: kinase RIPK3; LanthaScreen Binding
various kinases (Homo sapiens, UniProt Q9Y572), sequence (Q9Y572 whole entry): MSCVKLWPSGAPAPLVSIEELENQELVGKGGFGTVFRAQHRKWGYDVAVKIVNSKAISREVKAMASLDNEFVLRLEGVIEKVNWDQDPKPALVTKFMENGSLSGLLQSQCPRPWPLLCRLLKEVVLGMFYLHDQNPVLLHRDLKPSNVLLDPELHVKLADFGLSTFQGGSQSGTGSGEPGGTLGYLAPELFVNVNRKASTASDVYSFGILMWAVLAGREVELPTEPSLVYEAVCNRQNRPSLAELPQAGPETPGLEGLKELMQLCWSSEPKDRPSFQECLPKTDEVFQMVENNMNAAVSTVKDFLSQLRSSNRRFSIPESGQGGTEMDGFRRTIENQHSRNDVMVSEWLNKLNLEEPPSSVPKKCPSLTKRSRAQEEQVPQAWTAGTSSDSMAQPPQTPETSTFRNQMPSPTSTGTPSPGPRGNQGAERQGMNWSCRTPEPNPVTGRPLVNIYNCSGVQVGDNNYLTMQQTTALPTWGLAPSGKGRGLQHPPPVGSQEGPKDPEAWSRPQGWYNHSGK

various kinases (Homo sapiens, UniProt Q9NY57), sequence (Q9NY57 whole entry): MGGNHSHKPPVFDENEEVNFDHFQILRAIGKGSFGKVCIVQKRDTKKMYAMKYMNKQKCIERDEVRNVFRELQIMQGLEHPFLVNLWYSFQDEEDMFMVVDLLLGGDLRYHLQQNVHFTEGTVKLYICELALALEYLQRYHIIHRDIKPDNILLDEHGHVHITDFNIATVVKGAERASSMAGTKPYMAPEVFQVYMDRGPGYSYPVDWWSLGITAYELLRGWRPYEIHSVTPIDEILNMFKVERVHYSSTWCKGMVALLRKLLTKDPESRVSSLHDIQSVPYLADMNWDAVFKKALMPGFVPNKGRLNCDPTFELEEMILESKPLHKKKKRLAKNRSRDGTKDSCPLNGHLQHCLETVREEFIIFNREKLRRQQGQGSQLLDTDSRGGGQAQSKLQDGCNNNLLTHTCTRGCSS
various kinases (Homo sapiens, UniProt O75716), sequence (O75716 whole entry): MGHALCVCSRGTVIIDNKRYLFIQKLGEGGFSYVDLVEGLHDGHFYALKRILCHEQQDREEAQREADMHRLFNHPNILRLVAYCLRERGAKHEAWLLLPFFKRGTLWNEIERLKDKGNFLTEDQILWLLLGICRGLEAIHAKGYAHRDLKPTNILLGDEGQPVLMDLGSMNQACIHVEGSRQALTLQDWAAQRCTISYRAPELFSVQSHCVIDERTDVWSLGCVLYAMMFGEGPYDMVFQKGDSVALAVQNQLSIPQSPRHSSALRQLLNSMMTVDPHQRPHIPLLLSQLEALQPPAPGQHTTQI
various kinases (Homo sapiens, UniProt Q13131), sequence (Q13131 whole entry): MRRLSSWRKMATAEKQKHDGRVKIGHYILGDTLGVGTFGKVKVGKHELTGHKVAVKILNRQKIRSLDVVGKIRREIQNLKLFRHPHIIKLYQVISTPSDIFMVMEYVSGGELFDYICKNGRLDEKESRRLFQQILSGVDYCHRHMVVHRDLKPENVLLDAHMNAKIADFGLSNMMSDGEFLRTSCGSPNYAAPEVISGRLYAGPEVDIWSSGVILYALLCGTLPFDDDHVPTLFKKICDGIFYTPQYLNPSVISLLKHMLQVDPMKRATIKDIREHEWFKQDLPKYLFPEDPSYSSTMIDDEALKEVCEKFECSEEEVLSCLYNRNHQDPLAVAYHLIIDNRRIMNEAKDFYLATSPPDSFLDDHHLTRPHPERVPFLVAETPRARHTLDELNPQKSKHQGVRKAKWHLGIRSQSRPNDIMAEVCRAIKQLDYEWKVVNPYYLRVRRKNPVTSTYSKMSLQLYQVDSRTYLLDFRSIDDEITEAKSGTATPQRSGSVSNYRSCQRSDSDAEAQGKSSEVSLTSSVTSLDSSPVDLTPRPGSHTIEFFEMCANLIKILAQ
various kinases (Homo sapiens, UniProt P30291), sequence (P30291 whole entry): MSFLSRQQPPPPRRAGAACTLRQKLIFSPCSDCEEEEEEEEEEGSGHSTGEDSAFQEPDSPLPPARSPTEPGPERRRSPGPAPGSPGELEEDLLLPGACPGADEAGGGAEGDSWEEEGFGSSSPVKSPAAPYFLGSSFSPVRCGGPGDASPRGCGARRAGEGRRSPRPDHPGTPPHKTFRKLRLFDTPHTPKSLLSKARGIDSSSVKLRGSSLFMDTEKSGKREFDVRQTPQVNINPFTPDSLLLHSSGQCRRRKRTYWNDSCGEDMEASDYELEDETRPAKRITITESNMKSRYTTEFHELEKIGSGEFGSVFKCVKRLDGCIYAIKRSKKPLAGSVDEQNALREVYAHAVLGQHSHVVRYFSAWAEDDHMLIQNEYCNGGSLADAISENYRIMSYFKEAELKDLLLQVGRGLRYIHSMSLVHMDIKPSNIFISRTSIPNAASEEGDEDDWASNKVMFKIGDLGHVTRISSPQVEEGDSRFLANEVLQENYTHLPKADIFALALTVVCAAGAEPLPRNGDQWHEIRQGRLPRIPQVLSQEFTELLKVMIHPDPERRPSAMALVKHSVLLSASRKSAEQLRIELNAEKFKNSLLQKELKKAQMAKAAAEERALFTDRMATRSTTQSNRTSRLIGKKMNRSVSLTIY
various kinases (Homo sapiens, UniProt Q86Y07), sequence (Q86Y07 whole entry): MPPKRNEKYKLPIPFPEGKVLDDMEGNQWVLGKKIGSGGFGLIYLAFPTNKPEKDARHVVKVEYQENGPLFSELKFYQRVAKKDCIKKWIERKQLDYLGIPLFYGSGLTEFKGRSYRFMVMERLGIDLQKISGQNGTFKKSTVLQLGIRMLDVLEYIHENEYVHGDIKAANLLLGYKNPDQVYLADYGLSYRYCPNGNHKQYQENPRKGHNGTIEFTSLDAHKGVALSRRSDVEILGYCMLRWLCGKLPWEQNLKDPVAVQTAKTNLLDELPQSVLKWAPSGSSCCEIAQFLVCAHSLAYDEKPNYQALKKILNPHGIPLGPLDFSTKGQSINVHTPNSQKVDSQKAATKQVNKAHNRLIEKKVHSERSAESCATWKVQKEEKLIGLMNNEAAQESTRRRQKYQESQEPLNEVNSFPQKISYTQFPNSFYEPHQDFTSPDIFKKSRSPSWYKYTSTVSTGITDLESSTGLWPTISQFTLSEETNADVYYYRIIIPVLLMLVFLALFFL
various kinases (Homo sapiens, UniProt Q9NYL2), sequence (Q9NYL2 whole entry): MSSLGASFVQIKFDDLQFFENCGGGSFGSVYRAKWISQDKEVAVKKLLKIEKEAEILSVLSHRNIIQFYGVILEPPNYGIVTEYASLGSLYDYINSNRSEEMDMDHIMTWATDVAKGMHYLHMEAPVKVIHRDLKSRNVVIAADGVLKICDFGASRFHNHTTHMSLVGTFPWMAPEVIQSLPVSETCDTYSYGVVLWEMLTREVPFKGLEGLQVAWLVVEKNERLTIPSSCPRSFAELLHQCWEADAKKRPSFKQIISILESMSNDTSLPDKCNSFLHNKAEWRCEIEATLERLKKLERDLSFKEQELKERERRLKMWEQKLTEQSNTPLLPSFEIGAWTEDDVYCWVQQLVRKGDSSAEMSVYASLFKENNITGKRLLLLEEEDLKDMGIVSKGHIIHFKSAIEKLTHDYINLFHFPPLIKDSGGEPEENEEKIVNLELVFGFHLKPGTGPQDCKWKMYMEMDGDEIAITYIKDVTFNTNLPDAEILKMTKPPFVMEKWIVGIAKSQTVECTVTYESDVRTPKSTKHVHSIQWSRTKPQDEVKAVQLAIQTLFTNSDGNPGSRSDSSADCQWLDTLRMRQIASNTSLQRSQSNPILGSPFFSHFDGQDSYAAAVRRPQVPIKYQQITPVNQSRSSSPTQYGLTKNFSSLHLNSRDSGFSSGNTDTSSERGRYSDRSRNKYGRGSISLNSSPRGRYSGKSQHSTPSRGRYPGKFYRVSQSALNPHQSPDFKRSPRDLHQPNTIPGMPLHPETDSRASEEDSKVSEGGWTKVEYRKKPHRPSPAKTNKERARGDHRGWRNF
various kinases (Homo sapiens, UniProt O75460), sequence (O75460 19-977): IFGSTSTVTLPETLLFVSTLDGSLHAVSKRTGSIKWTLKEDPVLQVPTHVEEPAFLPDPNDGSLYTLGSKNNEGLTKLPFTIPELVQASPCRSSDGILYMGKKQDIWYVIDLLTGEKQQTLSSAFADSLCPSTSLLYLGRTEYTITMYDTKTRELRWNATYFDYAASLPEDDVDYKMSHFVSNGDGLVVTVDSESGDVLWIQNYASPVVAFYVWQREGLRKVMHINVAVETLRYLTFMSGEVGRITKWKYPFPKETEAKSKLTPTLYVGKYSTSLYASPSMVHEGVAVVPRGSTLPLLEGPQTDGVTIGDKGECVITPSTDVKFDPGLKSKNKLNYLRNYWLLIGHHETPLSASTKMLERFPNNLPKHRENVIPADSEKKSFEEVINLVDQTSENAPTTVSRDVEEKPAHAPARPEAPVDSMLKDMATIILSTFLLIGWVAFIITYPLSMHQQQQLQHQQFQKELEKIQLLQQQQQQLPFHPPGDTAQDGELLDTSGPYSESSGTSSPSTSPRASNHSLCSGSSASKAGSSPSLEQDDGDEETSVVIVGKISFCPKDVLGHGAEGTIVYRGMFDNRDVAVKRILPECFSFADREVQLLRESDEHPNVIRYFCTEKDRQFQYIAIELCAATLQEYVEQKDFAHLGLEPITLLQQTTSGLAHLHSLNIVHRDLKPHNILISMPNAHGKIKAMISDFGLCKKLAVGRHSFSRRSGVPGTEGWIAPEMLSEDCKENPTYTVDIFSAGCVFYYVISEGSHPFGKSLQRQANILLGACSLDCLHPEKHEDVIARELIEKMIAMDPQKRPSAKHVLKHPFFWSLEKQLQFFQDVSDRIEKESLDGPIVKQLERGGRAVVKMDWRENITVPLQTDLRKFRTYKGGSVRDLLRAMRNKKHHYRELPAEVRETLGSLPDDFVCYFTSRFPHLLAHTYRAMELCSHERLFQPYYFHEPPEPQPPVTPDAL

Structure (SMILES): COc1ccc2c(c1)[C@]1(C[C@H]1c1ccc3c(/C=C/c4ccc(CN5C[C@@H](C)O[C@@H](C)C5)cc4)n[nH]c3c1)C(=O)N2 [CFI-400945]
- % Inhibition (various kinases [1]): 3% and 7%
- % Inhibition Average (various kinases [2]): 1%
- % Inhibition Duplicate #1 (various kinases [2]): -1%
- % Inhibition Duplicate #2 (various kinases [2]): 4%
- % Inhibition (various kinases [3]): 9% and 6%
- % Inhibition Average (various kinases [4]): -4%
- % Inhibition Duplicate #1 (various kinases [4]): -6%
- % Inhibition Duplicate #2 (various kinases [4]): -3%
- % Inhibition Average (various kinases [5]): -5%
- % Inhibition Duplicate #1 (various kinases [5]): -7%
- % Inhibition Duplicate #2 (various kinases [5]): -2%
- % Inhibition (various kinases [6]): 11% and 12%
- % Inhibition (various kinases [7]): 10% and 0%
- % Inhibition (various kinases [8]): -4% and -2%
- % Inhibition (various kinases [9]): -2% and 1%
- % Inhibition (various kinases [10]): 46% and 45%
- % Inhibition (various kinases [11]; AMPK (A1/B1/G2)): 13% and 9%
- % Inhibition (various kinases [11]; AMPK (A1/B1/G3)): 10% and 15%
- % Inhibition (various kinases [11]; AMPK (A1/B2/G1)): 14% and 13%
- % Inhibition (various kinases [12]): 50% and 36%
- % Inhibition (various kinases [13]): 0% and 2%
- % Inhibition (various kinases [14]): -4% and 5%
- % Inhibition Average (various kinases [15]): 13%
- % Inhibition Duplicate #1 (various kinases [15]): 17%
- % Inhibition Duplicate #2 (various kinases [15]): 8%
- % Inhibition (various kinases [16]): 23% and 19%
- % Inhibition (various kinases [17]): -4% and -7%
- % Inhibition (various kinases [18]): 1% and 10%
- % Inhibition Average (various kinases [19]): 10%
- % Inhibition Duplicate #1 (various kinases [19]): 14%
- % Inhibition Duplicate #2 (various kinases [19]): 6%
- % Inhibition Average (various kinases [20]): 4%
- % Inhibition Duplicate #1 (various kinases [20]): -1%
- % Inhibition Duplicate #2 (various kinases [20]): 9%
- % Inhibition Average (various kinases [21]): -1%
- % Inhibition Duplicate #1 (various kinases [21]): -1%
- % Inhibition Duplicate #2 (various kinases [21]): -1%
- % Inhibition Average (various kinases [22]): 20%
- % Inhibition Duplicate #1 (various kinases [22]): 18%
- % Inhibition Duplicate #2 (various kinases [22]): 22%
- % Inhibition Average (various kinases [23]): 26%
- % Inhibition Duplicate #1 (various kinases [23]): 33%
- % Inhibition Duplicate #2 (various kinases [23]): 18%
- % Inhibition (various kinases [24]): -1% and 4%
- % Inhibition Average (various kinases [25]): 11%
- % Inhibition Duplicate #1 (various kinases [25]): 11%
- % Inhibition Duplicate #2 (various kinases [25]): 11%
